Measurements from patent US7538131B2, “2-{-3-′2-(phenyl)-oxazol-4-ylmethoxymethyl-cyclohexylmethoxy}-propionic acid derivatives useful as peroxisome proliferator-activated receptor (PPAR) ligands for the treatment of hyperlipidemia and diabetes” (Sanofi-Aventis Deutschland GmbH, priority 2004, dated 2009).

Experiments:
human PPARgamma = target: T1, human PPARgamma (Homo sapiens, UniProt P37231); experiment: Cellular PPARgamma assay (transiently transfected HEK cells, luciferase reporter); assay type: cell-based; conditions: GAL4-humanPPARgammaLBD, firefly/Renilla luciferase ratio, 48 h
T1 construct: human PPARgamma receptor (amino acids 1152-Y475); expressed in transfected cells; host or cells: HEK cells (transiently transfected, pcDNA3-GAL4-humanPPARgammaLBD)
T1 sequence (P37231 182-477 isoform P37231-2 limits assumed): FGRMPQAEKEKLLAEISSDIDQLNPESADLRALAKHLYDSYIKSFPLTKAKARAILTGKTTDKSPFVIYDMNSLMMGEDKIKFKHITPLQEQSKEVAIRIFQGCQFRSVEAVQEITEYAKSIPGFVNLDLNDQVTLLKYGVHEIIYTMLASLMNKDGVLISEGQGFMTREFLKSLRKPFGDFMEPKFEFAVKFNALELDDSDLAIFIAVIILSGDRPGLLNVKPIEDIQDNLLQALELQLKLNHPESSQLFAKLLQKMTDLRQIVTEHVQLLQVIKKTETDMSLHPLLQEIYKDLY
Excerpt: 4) Determination of EC50 Values of PPAR Agonists in the Cellular PPARgamma Assay
A transient transfection system is employed to determine the cellular PPARgamma activity of PPAR agonists. It is based on the use of a luciferase reporter plasmid (pGL3basic-5xGAL4-TK) and of a PPARgamma expression plasmid (pcDNA3-GAL4-humanPPARgammaLBD). Both plasmids are transiently transfected into human embryonic kidney cells (HEK cells). There is then expression in these cells of the fusion protein GAL4-humanPPARgammaLBD which binds to the GAL4 binding sites of the reporter plasmid. In the presence of a PPARgamma-active ligand, the activated fusion protein GAL4-humanPPARgammaLBD induces expression of the luciferase reporter gene, which can be detected in the form of a chemiluminescence signal after addition of a luciferase substrate. As a difference from the stably transfected PPARalpha reporter cell line, in the cellular PPARgamma assay the two components (luciferase reporter plasmid and PPARgamma expression plasmid) are transiently transfected into HEK cells because stable and permanent expression of the PPARgamma fusion protein is cytotoxic.
The luciferase reporter plasmid pGL3basic-5xGAL4-TK is based on the vector pGL3basic from Promega. The reporter plasmid is prepared by cloning five binding sites of the yeast transcription factor GAL4 (each binding site with the sequence 5′-CTCGGAGGACAGTACTCCG-3′), together with a 160 bp-long thymidine kinase promoter section (Genbank Accession #AF027128) 5′-upstream into pGL3basic. 3′-downstream of the thymidine kinase promoter is the complete luciferase gene from Photinus pyralis (Genbank Accession # Ml 5077), which is already a constituent of the plasmid pGL3basic used. The cloning and sequencing of the reporter plasmid pGL3basic-5xGAL4-TK took place in analogy to the description in Sambrook J. et. al. (Molecular cloning, Cold Spring Harbor Laboratory Press, 1989).
The PPARgamma expression plasmid pcDNA3-GAL4-humanPPARgammaLBD was prepared by first cloning the cDNA coding for amino acids 1-147 of the yeast transcription factor GAL4 (Genbank Accession #P04386) into the plasmid pcDNA3 (from Invitrogen) 3′-downstream of the cytomegalovirus promoter. Subsequently, the cDNA of the ligand-binding domain (LBD) of the human PPARgamma receptor (amino acids […]; Accession #g1480099) 3′-downstream of the GAL4 DNA binding domain was cloned. Cloning and sequencing of the PPARgamma expression plasmid pcDNA3-GAL4-humanPPARgammaLBD again took place in analogy to the description in Sambrook J. et. al. (Molecular cloning, Cold Spring Harbor Laboratory Press, 1989). Besides the luciferase reporter plasmid pGL3basic-5xGAL4-TK and the PPARgamma expression plasmid pcDNA3-GAL4-humanPPARgammaLBD, also used for the cellular PPARgamma assay are the reference plasmid pRL-CMV (from Promega) and the plasmid pBluescript SK(+) from Stratagene. All four plasmids were prepared using a plasmid preparation kit from Qiagen, which ensured a plasmid quality with a minimal endotoxin content, before transfection into HEK cells.
The activity of PPARgamma agonists is determined in a 4-day assay which is described below. Before the transfection, HEK cells were cultivated in DMEM medium (#41965-039, Invitrogen) which was mixed with the following additions: 10% FCS (#16000-044, Invitrogen),1% penicillin-streptomycin solution (#15140-122, Invitrogen) and 2 mM L-glutamine (#25030-024, Invitrogen).
Solution A, a transfection mixture which contains all four plasmids previously described in addition to DMEM medium, was prepared. […]

human PPARalpha = target: T2, human PPARalpha (Homo sapiens, UniProt Q07869); experiment: Cellular PPARalpha assay (stably transfected HEK luciferase reporter cell line); assay type: cell-based; conditions: GR-GAL4-humanPPARalpha-LBD, 24 h
T2 construct: human PPARalpha receptor (amino acids S167-Y468); expressed in transfected cells; host or cells: HEK cells (stably transfected, pcDNA3, CMV promoter)
T2 sequence (Q07869 167-468): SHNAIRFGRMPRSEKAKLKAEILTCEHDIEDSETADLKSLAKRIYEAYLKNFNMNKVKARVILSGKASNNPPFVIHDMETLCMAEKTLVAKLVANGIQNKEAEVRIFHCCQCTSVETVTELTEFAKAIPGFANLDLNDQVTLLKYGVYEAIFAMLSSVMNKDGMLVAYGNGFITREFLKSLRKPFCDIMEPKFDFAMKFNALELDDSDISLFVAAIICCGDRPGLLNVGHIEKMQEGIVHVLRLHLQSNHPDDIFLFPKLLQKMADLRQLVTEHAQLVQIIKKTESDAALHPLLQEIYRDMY
Method: 1) Determination of EC50 Values of PPAR Agonists in the Cellular PPARalpha Assay
The activity of the novel compounds of the present invention was tested as follows The potency of substances which bind to human PPARalpha and activate it in an agonistic manner is analyzed using a stably transfected HEK cell line (HEK=human embryo kidney) which is referred to here as PPARalpha reporter cell line. It contained two genetic elements, a luciferase reporter element (pdeltaM-GAL4-Luc-Zeo) and a PPARalpha fusion protein (GR-GAL4-humanPPARalpha-LBD) which mediates expression of the luciferase reporter element depending on a PPARalpha ligand. The stably and constitutively expressed fusion protein GR-GAL4-humanPPARalpha-LBD binds in the cell nucleus of the PPARalpha reporter cell line via the GAL4 protein portion to the GAL4 DNA binding motifs 5′-upstream of the luciferase reporter element which was stably integrated in the genome of the cell line. There is only little expression of the luciferase reporter gene without addition of a PPARalpha ligand if fatty acid-depleted fetal calf serum (cs-FCS) is used in the assay. PPARalpha ligands bind and activate the PPARalpha fusion protein and thereby bring about expression of the luciferase reporter gene. The luciferase which is formed can be detected by means of chemiluminescence via an appropriate substrate.
The PPARalpha reporter cell line was prepared in two steps. Firstly, the luciferase reporter element was constructed and stably transfected into HEK cells. For this purpose, five binding sites of the yeast transcription factor GAL4 (in each case 5′-CGGAGTACTGTCCTCCGAG-3′) were cloned in 5′-upstream of a 68 bp-long minimal MMTV promoter (Genbank Accession #V01175). The minimal MMTV promoter section contains a CCAAT box and a TATA element in order to enable efficient transcription by RNA polymerase II. The cloning and sequencing of the GAL4-MMTV construct took place in analogy to the description of Sambrook J. et. al. (Molecular Cloning, Cold Spring Harbor Laboratory Press, 1989). Which is hereby incorporated by reference herein.
The complete Photinus pyralis luciferase gene (Genbank Accession #M15077) was cloned in 3′-downstream of the GAL4-MMTV element. After sequencing, the luciferase reporter element consisting of five GAL4 binding sites, MMTV promoter and luciferase gene was subcloned into a plasmid which confers zeozin resistance in order to obtain the plasmid pdeltaM-GAL4-Luc-Zeo. This vector was transfected into HEK cells in accordance with the statements in Ausubel, F.M. et al. (Current Protocols in Molecular Biology, Vol. 1-3, John Wiley & Sons, Inc., 1995).
In a second step, the PPARalpha fusion protein (GR-GAL4-humanPPARalpha-LBD) was introduced into the stable cell clone described. For this purpose, initially the cDNA coding for the N-terminal 76 amino acids of the glucocorticoid receptor (Genbank Accession # P04150) was linked to the cDNA section coding for amino acids 1-147 of the yeast transcription factor GAL4 (Genbank Accession #P04386). The cDNA of the ligand-binding domain of the human PPARalpha receptor (amino acids S167-Y468; Genbank Accession #S74349) was cloned in at the 3′ end of this GR-GAL4 construct. The fusion construct prepared in this way (GR-GAL4-humanPPARalpha-LBD) was subcloned into the plasmid pcDNA3 (from Invitrogen) in order to enable constitutive expression therein by the cytomegalovirus promoter. This plasmid was linearized with a restriction endonuclease and stably transfected into the previously described cell clone containing the luciferase reporter element. The finished PPARalpha reporter cell line which contains a luciferase reporter element and constitutively expresses the PPARalpha fusion protein (GR-GAL4-humanPPARalpha-LBD) was isolated by selection with zeozin (0.5 mg/ml) and G418 (0.5 mg/ml).
The activity of PPARalpha agonists was determined in a 3-day assay which is described below: […]

SMILES	EC50 (human PPARgamma) [nM]	EC50 (human PPARalpha) [nM]
CCc1oc(-c2ccccc2C(F)(F)F)nc1COC[C@@H]1CCC[C@H](COC(C)(C)C(=O)O)C1 [Example 3, 2-{(1S,3R)-3-[5-Ethyl-2-(2-trifluoromethylphenyl)-oxazol-4-ylmethoxymethyl]cyclohexylmethoxyl}-2-methylpropionic acid]	2760	152
CCc1oc(-c2ccc(C)c(C)c2)nc1COC[C@H]1CCC[C@@H](COC(C)(C)C(=O)O)C1 [Example 21, 2-{(1R,3S)-3-[2-(3,4-Dimethylphenyl)-5-ethyloxazol-4-ylmethoxymethyl]cyclohexylmethoxyl}-2-methylpropionic acid]	184	1.6
CC(C)c1oc(-c2cccc(C(F)(F)F)c2)nc1COC[C@@H]1CCC[C@H](COC(C)(C)C(=O)O)C1 [Example 7, 2-{(1S,3R)-3-[5-Isopropyl-2-(3-trifluoromethylphenyl)oxazol-4-ylmethoxymethyl]cyclohexylmethoxyl}-2-methylpropionic acid]	800	46.2
CCc1oc(-c2ccc(C)c(C)c2)nc1COC[C@@H]1CCC[C@H](COC(C)(C)C(=O)O)C1 [Example 4, 2-{(1S,3R)-3-[2-(3,4-Dimethylphenyl)-5-ethyloxazol-4-ylmethoxymethyl]cyclohexylmethoxy}-2-methylpropionic acid]	324	1.9
CCc1oc(-c2cccc(C(F)(F)F)c2)nc1COC[C@@H]1CCC[C@H](COC(C)(C)C(=O)O)C1 [Example 2, 2-{(1S,3R)-3-[5-Ethyl-2-(3-trifluoromethylphenyl)-oxazol-4-ylmethoxymethyl]cyclohexylmethoxy}-2-methylpropionic acid]	232	32

Further lines, results first:

EC50 (human PPARgamma) [nM]	EC50 (human PPARalpha) [nM]	SMILES
38.3	20.5	CC(C)c1oc(-c2ccc(C(C)(C)C)cc2)nc1COC[C@H]1CCC[C@@H](COC(C)(C)C(=O)O)C1 [Example 18, 2-{(1R,3S)-3-[2-(4-tert-butylphenyl)-5-isopropyloxazol-4-ylmethoxymethyl]cyclohexylmethoxy}-2-methylpropionic acid]
2590	75	Cc1oc(-c2ccccc2)nc1COCC1CCCC(COC(C)(C)C(=O)O)C1 (stereo not shown) [*]
> 10000	1.3	Cc1oc(-c2ccc(C(C)C)cc2)nc1COCC1CCCC(COC(C)(C)C(=O)O)C1 (stereo not shown) [**]
266	14.3	CCc1oc(-c2ccc(C(C)(C)C)cc2)nc1COC[C@@H]1CCC[C@H](COC(C)(C)C(=O)O)C1 [Example 5, 2-{1(1S,3R)-3-[2-(4-tert-butylphenyl)-5-ethyloxazol-4-ylmethoxymethyl]cyclohexylmethoxy}-2-methylpropionic acid]
124	313	Cc1oc(-c2ccc(-c3ccccc3)cc2)nc1COC[C@H]1CCC[C@@H](COC(C)(C)C(=O)O)C1 [Example 13, 2-[(1R,3S)-3-(2-Biphenyl-4-yl-5-methyloxazol-4-ylmethoxymethyl)cyclohexylmethoxy]-2-methylpropionic acid]
1790	70.9	CC(C)c1oc(-c2ccc3ccccc3c2)nc1COC[C@@H]1CCC[C@H](COC(C)(C)C(=O)O)C1 [Example 11, 2-{(1S,3R)-3-[5-Isopropyl-2-(naphtha-2-yl)oxazol-4-ylmethoxymethyl]cyclohexylmethoxy}-2-methylpropionic acid]
